As usually defined, the IC50 is the point on the concentration scale where inhibition reaches its midpoint. Read a high IC50 as a need for much substance.

Molecules are shown by their SMILES. Bounds are passed on as bounds.

The target in assay [1] is T1, TIP60-KAT5 (Homo sapiens, UniProt Q92993).
T1 construct: encoding amino acid residues 2 to 461 (Uniprot Q92993-2) of human KAT5 isoform; made in house; host or cells: E. coli BL21 DE3
Briefly: Acetyltransferase biochemical assay (AlphaScreen), KAT5. To be noted: Table 1 (TIP60-KAT5); 0.4 μM Acetyl coenzyme A, histone H4, 10 nM enzyme.

Assay [2] deals with T2, MOZ-KAT6A (Homo sapiens, UniProt Q92794, A567V).
T2 construct: encoding amino acid residues 507 to 778 (Uniprot Q92794-1) of human KAT6A; made in house; host or cells: E. coli BL21 DE3
T2 sequence (Q92794 507-778 A567V limits assumed): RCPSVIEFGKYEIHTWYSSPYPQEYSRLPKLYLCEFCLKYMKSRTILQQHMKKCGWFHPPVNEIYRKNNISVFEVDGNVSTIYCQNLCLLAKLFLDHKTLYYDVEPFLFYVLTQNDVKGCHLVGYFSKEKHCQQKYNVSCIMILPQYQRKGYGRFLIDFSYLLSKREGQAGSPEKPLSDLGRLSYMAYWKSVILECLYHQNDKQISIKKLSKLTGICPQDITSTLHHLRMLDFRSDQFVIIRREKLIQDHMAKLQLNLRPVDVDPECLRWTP
Briefly: Acetyltransferase biochemical assay (AlphaScreen), KAT6A. To be noted: Table 2 (MOZ-KAT6A); 10 μM Acetyl coenzyme A, histone H3.1, 5 nM enzyme.

The target of assay [3] is T3, HBO-KAT7 (Homo sapiens, UniProt O95251).
T3 construct: encoding amino acid residues 325 to 611 (Uniprot 095251-1) of human KAT7; made in house; host or cells: E. coli BL21 DE3 RIL
T3 sequence (O95251 with tags, fused parts or gaps): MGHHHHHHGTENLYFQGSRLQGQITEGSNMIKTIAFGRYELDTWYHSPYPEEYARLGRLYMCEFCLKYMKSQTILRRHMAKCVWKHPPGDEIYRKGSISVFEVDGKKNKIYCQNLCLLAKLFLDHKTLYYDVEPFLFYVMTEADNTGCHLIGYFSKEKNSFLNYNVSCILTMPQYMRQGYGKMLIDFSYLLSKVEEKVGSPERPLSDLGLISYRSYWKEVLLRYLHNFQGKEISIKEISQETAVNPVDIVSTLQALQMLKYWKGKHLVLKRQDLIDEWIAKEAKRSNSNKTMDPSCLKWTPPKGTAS
Description: Acetyltransferase biochemical assay (AlphaScreen), KAT7. The settings on record: Table 3 (HBO-KAT7); 0.4 μM Acetyl coenzyme A, histone H3.1, 40 nM enzyme. A general note: In Alpha technology, singlet oxygen from a donor bead excites a nearby acceptor bead.

T1 sequence (Q92993 2-461 isoform Q92993-2): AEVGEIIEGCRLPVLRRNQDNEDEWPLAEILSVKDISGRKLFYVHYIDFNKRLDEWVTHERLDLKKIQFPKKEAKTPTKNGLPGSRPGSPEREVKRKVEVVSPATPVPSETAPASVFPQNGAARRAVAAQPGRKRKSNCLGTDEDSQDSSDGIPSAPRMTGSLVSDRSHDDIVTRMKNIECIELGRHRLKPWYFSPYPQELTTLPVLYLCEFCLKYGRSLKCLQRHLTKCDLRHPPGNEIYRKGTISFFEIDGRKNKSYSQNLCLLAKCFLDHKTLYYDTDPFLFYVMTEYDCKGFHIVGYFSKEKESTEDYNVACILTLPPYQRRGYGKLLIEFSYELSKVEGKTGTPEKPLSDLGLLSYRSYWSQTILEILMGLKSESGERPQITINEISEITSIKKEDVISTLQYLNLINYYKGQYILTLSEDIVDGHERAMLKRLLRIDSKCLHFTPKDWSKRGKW

With `O=C(NCC(c1ccccc1)c1ncco1)C1=Nc2ccc(O)cc2S(=O)(=O)N1` (single isomer, unassigned) [Example 148], the figures for the IC50 in assay [1] and in assay [2] were 45.7 µM and 5.39 µM, respectively.

In the case of `O=C(NCC(c1ccccc1)c1ncco1)C1=Nc2ccc(O)cc2S(=O)(=O)N1` (single isomer, unassigned) [Example 149], the IC50 in assay [1] was 4.88 µM; in assay [2], 0.102 µM. For `O=C(NCC(c1ccccc1)c1ncc[nH]1)C1=Nc2ccccc2S(=O)(=O)N1` (single isomer, unassigned) [Example 152], in that order: 52.8 µM and 47.5 µM. For `O=C(NCC(c1ccccc1)c1ncco1)C1=Nc2ccc(-c3cnn(CCO)c3)cc2S(=O)(=O)N1` (stereo not shown) [Example 10, 7-(1-(2-Hydroxyethyl)-1H-pyrazol-4-yl)-N-(2-(oxazol-2-yl)-2-phenylethyl)-2H-benzo[e][1,2,4]thiadiazine-3-carboxamide 1,1-dioxide], in that order: 79.7 µM and 0.0906 µM. Consider `Cc1ccc2c(c1)S(=O)(=O)NC(C(=O)NCC(c1ccccc1)c1ccccc1)=N2` [Example 16, N-(2,2-Diphenylethyl)-7-methyl-2H-benzo[e][1,2,4]thiadiazine-3-carboxamide 1,1-dioxide], for which the IC50 in assay [1] was 23.8 µM; in assay [2], 1.37 µM.

With `O=C(NCC(c1ccccc1)c1ccccc1)C1=Nc2ccc(C3CC3)cc2S(=O)(=O)N1` [Example 17, 7-Cyclopropyl-N-(2,2-diphenylethyl)-2H-benzo[e][1,2,4]thiadiazine-3-carboxamide 1,1-dioxide], the results for the IC50 in assay [1] and in assay [2] were 51 µM and 3.33 µM, respectively. Take `O=C(NCC(c1ccccc1)c1ccccc1)C1=Nc2ccc(-c3ccn[nH]3)cc2S(=O)(=O)N1` [Example 22, N-(2,2-diphenylethyl)-7-(1H-pyrazol-5-yl)-2H-benzo[e][1,2,4]thiadiazine-3-carboxamide 1,1-dioxide]: the values for the IC50 in assay [1] and in assay [2] were 72.4 µM and 1.98 µM, respectively.

In the case of `NC(=O)c1ccc2c(c1)S(=O)(=O)NC(C(=O)NCC(c1ccccc1)c1ncco1)=N2` (stereo not shown) [Example 27, N^3-(2-(Oxazol-2-yl)-2-phenylethyl)-2H-benzo[e][1,2,4]thiadiazine-3,7-dicarboxamide 1,1-dioxide], the IC50 in assay [1] was 1.29 µM; in assay [2], 0.0195 µM. `O=C(NCC(c1ccccc1)c1ccccc1)C1=Nc2ccc(-c3cccnc3)cc2S(=O)(=O)N1` [Example 37, N-(2,2-diphenylethyl)-7-(pyridin-3-yl)-2H-benzo[e][1,2,4]thiadiazine-3-carboxamide 1,1-dioxide]: the IC50 in assay [1] worked out at 44 µM; in assay [2] it was 0.771 µM. Taken in the same sequence, the figures for `CNC(=O)C(CNC(=O)C1=Nc2ccccc2S(=O)(=O)N1)c1ccccc1` (stereo not shown) [Example 45, N-(3-(methylamino)-3-oxo-2-phenylpropyl)-2H-benzo[e][1,2,4]thiadiazine-3-carboxamide 1,1-dioxide] were 109 µM and 35.2 µM.

In the case of `O=C(NCC(OC(=O)N1CCC1)c1ccccc1)C1=Nc2ccccc2S(=O)(=O)N1` (stereo not shown) [Example 51, 2-(1,1-dioxido-2H-benzo[e][1,2,4]thiadiazine-3-carboxamido)-1-phenylethyl azetidine-1-carboxylate], the IC50 in assay [1] is 25.3 µM; in assay [2], 4.82 µM. Consider `O=C(NCC(c1ccccc1)n1ccnn1)C1=Nc2ccccc2S(=O)(=O)N1` (stereo not shown) [Example 52, N-(2-phenyl-2-(1H-1,2,3-triazol-1-yl)ethyl)-2H-benzo[e][1,2,4]thiadiazine-3-carboxamide 1,1-dioxide], for which, in assay [2], half-maximal inhibition (IC50) required 36.1 µM. Consider `Cc1coc(C(CNC(=O)C2=Nc3ccccc3S(=O)(=O)N2)c2ccccc2)n1` (stereo not shown) [Example 53, N-(2-(4-methyloxazol-2-yl)-2-phenylethyl)-2H-benzo[e][1,2,4]thiadiazine-3-carboxamide 1,1-dioxide], for which the IC50 in assay [1] turned out to be 19.8 µM; in assay [2] it was 0.273 µM. Taken in the same sequence, the figures for `O=C(NCCc1cccc(F)c1)C1=Nc2ccccc2S(=O)(=O)N1` [Example 61] were > 125 µM and > 125 µM. Turning to `COc1cccc(CCNC(=O)C2=Nc3ccccc3S(=O)(=O)N2)c1` [Example 62], the IC50 in assay [1] and in assay [2] was > 125 µM each time. For `O=C(NCCc1ccccc1F)C1=Nc2ccccc2S(=O)(=O)N1` [Example 63], the IC50 in assay [1] and in assay [2] was > 125 µM throughout. On to `COc1ccccc1CCNC(=O)C1=Nc2ccccc2S(=O)(=O)N1` [Example 64], for which the results for the IC50 in assay [1] and in assay [2] were 92.1 µM and 102 µM, respectively.

On to `O=C(NCCc1ccccc1C(F)(F)F)C1=Nc2ccccc2S(=O)(=O)N1` [Example 65], for which the IC50 worked out at 85.4 µM in assay [1] and 53.9 µM in assay [2].

Turning to `O=C(NCCc1ccc(F)cc1)C1=Nc2ccccc2S(=O)(=O)N1` [Example 66], the 50% inhibitory concentration (IC50) in assay [1] and in assay [2] was > 125 µM in each case. Take `Cc1ccc(CCNC(=O)C2=Nc3ccccc3S(=O)(=O)N2)cc1` [Example 67]: the IC50 in assay [1] and in assay [2] was > 125 µM throughout. Take `O=C(NCCc1ccc(Cl)cc1)C1=Nc2ccccc2S(=O)(=O)N1` [Example 69]: the IC50 in assay [1] and in assay [2] was > 125 µM each time. Regarding `O=C(NCCc1cccnc1)C1=Nc2ccccc2S(=O)(=O)N1` [Example 70], the IC50 in assay [1] and in assay [2] was > 125 µM throughout. With `COC(CNC(=O)C1=Nc2ccccc2S(=O)(=O)N1)c1ccccc1` (stereo not shown) [Example 74], the IC50 in assay [1] was > 125 µM; in assay [2], 67.5 µM.

`O=C(NCC(O)c1ccccc1)C1=Nc2ccccc2S(=O)(=O)N1` (stereo not shown) [Example 76]: the IC50 in assay [1] and in assay [2] was > 125 µM in each case. In the case of `CNC(=O)c1ccccc1CCNC(=O)C1=Nc2ccc(I)cc2S(=O)(=O)N1` [Example 110], the IC50 in assay [1] stood at 75.6 µM; in assay [3], 101 µM. On to `CN(C)C(=O)c1ccccc1CCNC(=O)C1=Nc2ccc(I)cc2S(=O)(=O)N1` [Example 111], for which the IC50 amounted to 16.6 µM in assay [1] and 81.4 µM in assay [3]. Taken in the same sequence, the figures for `O=C(NCC(O)c1ccccc1OCc1ccccc1)C1=Nc2ccc(I)cc2S(=O)(=O)N1` (stereo not shown) [Example 119] were 5.26 µM and 18.5 µM.

As to `COc1cccc(C(O)CNC(=O)C2=Nc3ccc(I)cc3S(=O)(=O)N2)c1` (stereo not shown) [Example 121], the results for the IC50 in assay [1] and in assay [3] were 40.8 µM and 47 µM, respectively. As for `O=C(NCC(F)c1ccccc1)C1=Nc2ccc(I)cc2S(=O)(=O)N1` (stereo not shown) [Example 123], the IC50 in assay [1] amounted to 5.01 µM; in assay [3], 1.72 µM. For `O=C(NCC(O)c1cccc(Cl)c1)C1=Nc2ccc(I)cc2S(=O)(=O)N1` (stereo not shown) [Example 124], in that order: 24.6 µM and 18.7 µM.

On to `O=C(NCC(O)c1ccc(Cl)cc1)C1=Nc2ccc(I)cc2S(=O)(=O)N1` (stereo not shown) [Example 125], for which the IC50 in assay [1] and in assay [3] was > 125 µM in each case. Consider `O=C(NCC(O)c1cccc(F)c1)C1=Nc2ccc(I)cc2S(=O)(=O)N1` (stereo not shown) [Example 126], for which the IC50 came to 31.3 µM in assay [1] and 12.4 µM in assay [3]. Turning to `O=C(NCC(O)c1ccc(F)cc1)C1=Nc2ccc(I)cc2S(=O)(=O)N1` (stereo not shown) [Example 127], the figures for the IC50 in assay [1] and in assay [3] were 61.2 µM and 34.7 µM, respectively. Turning to `O=C(NCC(O)c1cccc(C(F)(F)F)c1)C1=Nc2ccc(I)cc2S(=O)(=O)N1` (stereo not shown) [Example 128], the IC50 in assay [1] and in assay [3] was > 125 µM throughout.

Values taken from US20210380548A1, “Fused [1,2,4]Thiadiazine Derivatives Which Act as KAT Inhibitors of the MYST Family” (CTxT Pty Limited, priority 2017, published 2021).
